Reference: the Kinase Knowledgebase extract (Sharma et al. 2016)

The compounds below were run against PIK3CG (human) (UniProt P48736) (assay: Assessment of PIK3CG Kinase Activity).
Sequence of PIK3CG (human) (P48736 whole entry, looked up): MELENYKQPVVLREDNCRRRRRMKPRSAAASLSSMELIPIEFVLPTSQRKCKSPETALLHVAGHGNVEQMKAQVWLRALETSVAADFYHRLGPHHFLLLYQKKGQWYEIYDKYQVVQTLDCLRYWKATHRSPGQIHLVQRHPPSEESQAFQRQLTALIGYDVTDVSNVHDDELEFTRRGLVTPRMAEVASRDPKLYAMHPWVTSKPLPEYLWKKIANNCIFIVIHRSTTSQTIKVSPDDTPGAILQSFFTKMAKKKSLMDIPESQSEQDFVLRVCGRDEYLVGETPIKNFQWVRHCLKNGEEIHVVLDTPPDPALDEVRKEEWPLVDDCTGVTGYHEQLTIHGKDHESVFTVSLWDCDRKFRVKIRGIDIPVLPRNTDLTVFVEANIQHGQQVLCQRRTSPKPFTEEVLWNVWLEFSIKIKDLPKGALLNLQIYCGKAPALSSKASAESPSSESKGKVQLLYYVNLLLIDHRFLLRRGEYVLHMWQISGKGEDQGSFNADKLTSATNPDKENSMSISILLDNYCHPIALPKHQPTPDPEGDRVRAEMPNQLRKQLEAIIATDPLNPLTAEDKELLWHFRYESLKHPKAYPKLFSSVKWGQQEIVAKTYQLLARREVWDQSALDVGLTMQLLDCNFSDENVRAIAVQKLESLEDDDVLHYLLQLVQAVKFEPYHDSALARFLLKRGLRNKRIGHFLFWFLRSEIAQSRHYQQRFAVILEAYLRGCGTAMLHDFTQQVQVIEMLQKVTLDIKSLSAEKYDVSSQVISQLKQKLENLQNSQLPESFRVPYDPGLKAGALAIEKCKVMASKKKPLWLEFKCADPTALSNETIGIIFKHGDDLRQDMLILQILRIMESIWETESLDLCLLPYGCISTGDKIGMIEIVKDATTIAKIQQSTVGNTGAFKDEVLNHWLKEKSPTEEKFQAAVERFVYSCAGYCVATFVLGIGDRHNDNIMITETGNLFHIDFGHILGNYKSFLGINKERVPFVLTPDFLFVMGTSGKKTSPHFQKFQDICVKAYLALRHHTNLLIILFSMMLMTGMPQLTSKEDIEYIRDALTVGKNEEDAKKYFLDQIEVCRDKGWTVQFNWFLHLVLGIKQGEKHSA

Row | SMILES | IC50 [nM]
1 | CCNC(=O)CCNC(=O)Nc1nc2c(s1)-c1nc(-c3ccccc3Cl)ncc1CC2 | < 800
2 | O=C(NCCN1CCNC1=O)Nc1nc2c(s1)-c1nc(-c3ccccc3Cl)ncc1CC2 | < 800
3 | CC(C)OCCNC(=O)Nc1nc2c(s1)-c1nc(-c3ccccc3Cl)ncc1CC2 | < 800
4 | CC(=O)Nc1cccc(CNC(=O)Nc2nc3c(s2)-c2nc(-c4ccccc4Cl)ncc2CC3)c1 | < 800
5 | CC(C)(C)c1cc(CNC(=O)Nc2nc3c(s2)-c2nc(-c4ccccc4Cl)ncc2CC3)[nH]n1 | < 800
6 | COc1ccc(OC)c(CNC(=O)Nc2nc3c(s2)-c2nc(-c4ccccc4Cl)ncc2CC3)c1 | < 800
7 | NC(=O)c1cccc(CNC(=O)Nc2nc3c(s2)-c2nc(-c4ccccc4Cl)ncc2CC3)c1 | < 800
8 | CC(C)c1nnc(CCNC(=O)Nc2nc3c(s2)-c2nc(-c4ccccc4F)ncc2CC3)o1 | < 800
9 | CN(C)S(=O)(=O)N[C@H]1CCN(C(=O)Nc2nc3c(s2)-c2nc(-c4ccccc4Cl)ncc2CC3)C1 | < 800
10 | NC(=O)Nc1nc2c(s1)-c1nc(-c3cccc(F)c3Cl)ncc1CC2 | < 800
11 | O=C(NCCN1CCOCC1)Nc1nc2c(s1)-c1nc(-c3ccccc3Cl)ncc1CC2 | < 800
12 | O=C(NCc1nnn[nH]1)Nc1nc2c(s1)-c1nc(-c3ccccc3Cl)ncc1CC2 | < 800
13 | CCc1csc(CCNC(=O)Nc2nc3c(s2)-c2nc(-c4ccccc4Br)ncc2CC3)n1 | < 800
14 | CN1CCC(O)C2(CCCN(C(=O)Nc3nc4c(s3)-c3nc(-c5ccccc5Cl)ncc3CC4)C2)C1 (stereo unspecified) | < 800
15 | CCN1CCC[C@H]1CNC(=O)Nc1nc2c(s1)-c1nc(-c3ccccc3Cl)ncc1CC2 | < 800
16 | Cn1cc(CNC(=O)Nc2nc3c(s2)-c2nc(-c4ccccc4Br)ncc2CC3)cn1 | < 800
17 | CN(C)C(=O)N[C@H]1CCN(C(=O)Nc2nc3c(s2)-c2nc(-c4ccccc4Cl)ncc2CC3)C1 | < 800
18 | COc1cccc(CNC(=O)Nc2nc3c(s2)-c2nc(-c4ccccc4Cl)ncc2CC3)c1OC | < 800
19 | O=C(NCc1cccs1)Nc1nc2c(s1)-c1nc(-c3ccccc3Cl)ncc1CC2 | < 800
20 | Cn1cc(CNC(=O)Nc2nc3c(s2)-c2nc(-c4ccccc4Cl)ncc2CC3)cn1 | < 800
21 | CC1(C)NC(=O)N(Cc2ccc(CNC(=O)Nc3nc4c(s3)-c3nc(-c5ccccc5Cl)ncc3CC4)cc2)C1=O | < 800
22 | CC(C)CNC(=O)c1cccc(CNC(=O)Nc2nc3c(s2)-c2nc(-c4ccccc4Cl)ncc2CC3)c1 | < 800
23 | O=C(NCc1ccc2cc[nH]c2c1)Nc1nc2c(s1)-c1nc(-c3ccccc3Cl)ncc1CC2 | < 800

Row | SMILES | IC50 [nM]
24 | CC(C)(C)CNC(=O)Nc1nc2c(s1)-c1nc(-c3ccccc3Cl)ncc1CC2 | < 800
25 | CCCn1cnc(CCNC(=O)Nc2nc3c(s2)-c2nc(-c4ccccc4Br)ncc2CC3)c1 | < 800
26 | CCc1nnc(CCNC(=O)Nc2nc3c(s2)-c2nc(-c4ccccc4F)ncc2CC3)o1 | < 800
27 | O=C(NCc1cccc(C(=O)NC2CCCCC2)c1)Nc1nc2c(s1)-c1nc(-c3ccccc3Cl)ncc1CC2 | < 800
28 | CC(C)N(C)C(=O)N[C@H]1CCN(C(=O)Nc2nc3c(s2)-c2nc(-c4ccccc4Cl)ncc2CC3)C1 | < 800
29 | O=C(N[C@H]1CCN(C(=O)Nc2nc3c(s2)-c2nc(-c4ccccc4Cl)ncc2CC3)C1)C(F)F | < 800
30 | O=C(NCCc1ccccn1)Nc1nc2c(s1)-c1nc(-c3ccccc3Cl)ncc1CC2 | < 800
31 | CC(C)(C)OC(=O)N[C@H]1CC[C@H](CNC(=O)Nc2nc3c(s2)-c2nc(-c4ccccc4Cl)ncc2CC3)CC1 | < 800
32 | O=C(NCCCN1CCNC1=O)Nc1nc2c(s1)-c1nc(-c3ccccc3Cl)ncc1CC2 | < 800
33 | CN(C)S(=O)(=O)N[C@@H]1CCN(C(=O)Nc2nc3c(s2)-c2nc(-c4ccccc4Cl)ncc2CC3)C1 | < 800
34 | CC(C)c1cnc(CCNC(=O)Nc2nc3c(s2)-c2nc(-c4ccccc4Cl)ncc2CC3)o1 | < 800
35 | O=C(Nc1nc2c(s1)-c1nc(-c3ccccc3Cl)ncc1CC2)Nc1ccccc1CN1CCNC1=O | < 800
36 | CN(C)C(=O)Nc1nc2c(s1)-c1nc(-c3ccccc3Br)ncc1CC2 | < 800
37 | CC(=O)N[C@H]1CCN(C(=O)Nc2nc3c(s2)-c2nc(-c4ccccc4Cl)ncc2CC3)C1 | < 800
38 | O=C(NCC1CC1)Nc1nc2c(s1)-c1nc(-c3ccccc3Cl)ncc1CC2 | < 800
39 | CN(C)c1cccc(CNC(=O)Nc2nc3c(s2)-c2nc(-c4ccccc4Cl)ncc2CC3)c1 | < 800
40 | COCCNC(=O)CCNC(=O)Nc1nc2c(s1)-c1nc(-c3ccccc3Cl)ncc1CC2 | < 800
41 | O=C(NCc1ccn[nH]1)Nc1nc2c(s1)-c1nc(-c3ccccc3Cl)ncc1CC2 | < 800
42 | CC(C)(C)OC(=O)N1CCN(c2cccc(NC(=O)Nc3nc4c(s3)-c3nc(-c5ccccc5Cl)ncc3CC4)c2)CC1 | < 800
43 | CCc1nnc(CCNC(=O)Nc2nc3c(s2)-c2nc(-c4ccccc4Br)ncc2CC3)o1 | < 800
44 | CC(C)c1nnc(CCNC(=O)Nc2nc3c(s2)-c2nc(-c4ccccc4Br)ncc2CC3)o1 | < 800
45 | O=C(Nc1nc2c(s1)-c1nc(-c3ccccc3Cl)ncc1CC2)N1CCC2(CC1)C(=O)NCN2c1ccccc1 | < 800
46 | CCOC(=O)CCNC(=O)Nc1nc2c(s1)-c1nc(-c3ccccc3Cl)ncc1CC2 | < 800

Row | SMILES | IC50 [nM]
47 | O=C(CCNC(=O)Nc1nc2c(s1)-c1nc(-c3ccccc3Cl)ncc1CC2)NC1CCCC1 | < 800
48 | CC(C)c1noc(CCNC(=O)Nc2nc3c(s2)-c2nc(-c4ccccc4Cl)ncc2CC3)n1 | < 800
49 | O=C1Cc2ccccc2CN1CC1CCN(C(=O)Nc2nc3c(s2)-c2nc(-c4ccccc4Cl)ncc2CC3)C1 (stereo unspecified) | < 800
50 | O=C(CCNC(=O)Nc1nc2c(s1)-c1nc(-c3ccccc3Cl)ncc1CC2)NCC1CC1 | < 800
51 | CCc1csc(CCNC(=O)Nc2nc3c(s2)-c2nc(-c4ccccc4Cl)ncc2CC3)n1 | < 800
52 | CN(C)CCCNC(=O)Nc1nc2c(s1)-c1nc(-c3ccccc3Cl)ncc1CC2 | < 800
53 | O=C(NCc1cccc(OC(F)(F)F)c1)Nc1nc2c(s1)-c1nc(-c3ccccc3Cl)ncc1CC2 | < 800
54 | O=C(Nc1nc2c(s1)-c1nc(-c3ccccc3Cl)ncc1CC2)N1CCC(CN2CCc3ccccc3C2=O)C1 (stereo unspecified) | < 800
55 | O=C(Nc1nc2c(s1)-c1nc(-c3ccccc3Cl)ncc1CC2)N1CC[C@H](NS(=O)(=O)N2CCOCC2)C1 | < 800
56 | N#Cc1cccc(CNC(=O)Nc2nc3c(s2)-c2nc(-c4ccccc4Cl)ncc2CC3)c1 | < 800
57 | CC(C)(C)OC(=O)NCc1ccccc1NC(=O)Nc1nc2c(s1)-c1nc(-c3ccccc3Cl)ncc1CC2 | < 800
58 | COc1cccc(CCNC(=O)Nc2nc3c(s2)-c2nc(-c4ccccc4Cl)ncc2CC3)c1OC | < 800
59 | CC(C)(C)c1ncc2c(n1)-c1sc(NC(=O)NCc3cccc(N4CCNC4=O)c3)nc1CC2 | < 800
60 | CC(C)OCCCNC(=O)Nc1nc2c(s1)-c1nc(-c3ccccc3Cl)ncc1CC2 | < 800
61 | CC(C)CCNC(=O)Nc1nc2c(s1)-c1nc(-c3ccccc3Cl)ncc1CC2 | < 800
62 | Cc1c[nH]c(CCNC(=O)Nc2nc3c(s2)-c2nc(-c4ccccc4Cl)ncc2CC3)n1 | < 800
63 | COC(=O)N[C@H]1CCN(C(=O)Nc2nc3c(s2)-c2nc(-c4ccccc4Cl)ncc2CC3)C1 | < 800
64 | O=C(NCc1cccc(N2CCOCC2)c1)Nc1nc2c(s1)-c1nc(-c3ccccc3Cl)ncc1CC2 | < 800
65 | O=C(NCc1cc(C2CC2)n[nH]1)Nc1nc2c(s1)-c1nc(-c3ccccc3Br)ncc1CC2 | < 800
66 | CCNC(=O)Nc1nc2c(s1)-c1nc(-c3ccccc3Cl)ncc1CC2 | < 800
67 | CN1CCN(Cc2ccc(NC(=O)Nc3nc4c(s3)-c3nc(-c5ccccc5Cl)ncc3CC4)cc2)CC1 | < 800
68 | CN(C)C(=O)Nc1nc2c(s1)-c1nc(-c3ccccc3C(F)(F)F)ncc1CC2 | < 800
69 | CC(C)(C)OC(=O)CC1(O)CCN(C(=O)Nc2nc3c(s2)-c2nc(-c4ccccc4Cl)ncc2CC3)CC1 | < 800

Row | SMILES | IC50 [nM]
70 | COc1cccc([C@H](C)NC(=O)Nc2nc3c(s2)-c2nc(-c4ccccc4Cl)ncc2CC3)c1 | < 800
71 | CC(C)c1nnc(CCNC(=O)Nc2nc3c(s2)-c2nc(-c4ccccc4Cl)ncc2CC3)o1 | < 800
72 | CC(C)COC(=O)N[C@@H]1CCN(C(=O)Nc2nc3c(s2)-c2nc(-c4ccccc4Cl)ncc2CC3)C1 | < 800
73 | CNC(=O)Nc1cccc(CNC(=O)Nc2nc3c(s2)-c2nc(-c4ccccc4Cl)ncc2CC3)c1 | < 800
74 | O=C(NCCc1cccc(N2CCNC2=O)c1)Nc1nc2c(s1)-c1nc(-c3ccccc3Cl)ncc1CC2 | < 800
75 | CC(=O)NC1CCN(C(=O)Nc2nc3c(s2)-c2nc(-c4ccccc4Cl)ncc2CC3)C1 (stereo unspecified) | < 800
76 | Cc1ccc(CN2CC(CNC(=O)Nc3nc4c(s3)-c3nc(-c5ccccc5Cl)ncc3CC4)CC2=O)cc1 (stereo unspecified) | < 800
77 | CC(C)CC(=O)N[C@H]1CCN(C(=O)Nc2nc3c(s2)-c2nc(-c4ccccc4Cl)ncc2CC3)C1 | < 800
78 | N#Cc1ccc(CNC(=O)Nc2nc3c(s2)-c2nc(-c4ccccc4Cl)ncc2CC3)s1 | < 800
79 | O=C(NCCc1cccnc1)Nc1nc2c(s1)-c1nc(-c3ccccc3Cl)ncc1CC2 | < 800
80 | Cn1cc(CNC(=O)Nc2nc3c(s2)-c2nc(-c4cccc(F)c4Cl)ncc2CC3)cn1 | < 800
81 | CCC(=O)N[C@H]1CCN(C(=O)Nc2nc3c(s2)-c2nc(-c4ccccc4Cl)ncc2CC3)C1 | < 800
82 | O=C(Nc1nc2c(s1)-c1nc(-c3ccccc3Cl)ncc1CC2)N1CC[C@@H](NC(=O)N2CCOCC2)C1 | < 800
83 | O=C(NCC1CCCN(c2ncccn2)C1)Nc1nc2c(s1)-c1nc(-c3ccccc3Cl)ncc1CC2 (stereo unspecified) | < 800
84 | CS(=O)(=O)N[C@H]1CCN(C(=O)Nc2nc3c(s2)-c2nc(-c4ccccc4Cl)ncc2CC3)C1 | < 800
85 | O=C(NCCc1ccc2c(c1)OCO2)Nc1nc2c(s1)-c1nc(-c3ccccc3Cl)ncc1CC2 | < 800
86 | CC(C)(C)OC(=O)N1CCCCC1CNC(=O)Nc1nc2c(s1)-c1nc(-c3ccccc3Cl)ncc1CC2 (stereo unspecified) | < 800
87 | CNC(=O)Nc1nc2c(s1)-c1nc(-c3ccccc3F)ncc1CC2 | < 800
88 | COc1cccc(CCNC(=O)Nc2nc3c(s2)-c2nc(-c4ccccc4Cl)ncc2CC3)c1 | < 800
89 | O=C(CCNC(=O)Nc1nc2c(s1)-c1nc(-c3ccccc3Cl)ncc1CC2)NC1CC1 | < 800
90 | O=C(NCc1ccc(CN2CCNC2=O)cc1)Nc1nc2c(s1)-c1nc(-c3ccccc3Cl)ncc1CC2 | < 800
91 | CC(C)CN(C)C(=O)N[C@H]1CCN(C(=O)Nc2nc3c(s2)-c2nc(-c4ccccc4Cl)ncc2CC3)C1 | < 800
